Experimental data from ChEMBL document CHEMBL5365546, “The Potential of NOD-like Receptor Protein 3 Inflammasome Inhibitors in the Treatments of Diseases” (ACS Med Chem Lett, 2023).

Key:
[1] = target: T1, NACHT, LRR and PYD domains-containing protein 3 (Homo sapiens, UniProt Q96P20); assay: Inhibition of NLRP3 in human PBMC assessed as reduction in LPS-induced TNF level preincubated for 30 mins followed by LPS-stimulation and measured after 6 hrs by MSD assay; format: cell-based
[2] = target: T1, NACHT, LRR and PYD domains-containing protein 3; assay: Inhibition of NLRP3 in human PBMC assessed as reduction in LPS-induced IL-1beta level preincubated for 30 mins followed by LPS-stimulation and measured after 6 hrs by MSD assay; format: cell-based

T1 sequence (Q96P20 whole entry, the tested form may be a part): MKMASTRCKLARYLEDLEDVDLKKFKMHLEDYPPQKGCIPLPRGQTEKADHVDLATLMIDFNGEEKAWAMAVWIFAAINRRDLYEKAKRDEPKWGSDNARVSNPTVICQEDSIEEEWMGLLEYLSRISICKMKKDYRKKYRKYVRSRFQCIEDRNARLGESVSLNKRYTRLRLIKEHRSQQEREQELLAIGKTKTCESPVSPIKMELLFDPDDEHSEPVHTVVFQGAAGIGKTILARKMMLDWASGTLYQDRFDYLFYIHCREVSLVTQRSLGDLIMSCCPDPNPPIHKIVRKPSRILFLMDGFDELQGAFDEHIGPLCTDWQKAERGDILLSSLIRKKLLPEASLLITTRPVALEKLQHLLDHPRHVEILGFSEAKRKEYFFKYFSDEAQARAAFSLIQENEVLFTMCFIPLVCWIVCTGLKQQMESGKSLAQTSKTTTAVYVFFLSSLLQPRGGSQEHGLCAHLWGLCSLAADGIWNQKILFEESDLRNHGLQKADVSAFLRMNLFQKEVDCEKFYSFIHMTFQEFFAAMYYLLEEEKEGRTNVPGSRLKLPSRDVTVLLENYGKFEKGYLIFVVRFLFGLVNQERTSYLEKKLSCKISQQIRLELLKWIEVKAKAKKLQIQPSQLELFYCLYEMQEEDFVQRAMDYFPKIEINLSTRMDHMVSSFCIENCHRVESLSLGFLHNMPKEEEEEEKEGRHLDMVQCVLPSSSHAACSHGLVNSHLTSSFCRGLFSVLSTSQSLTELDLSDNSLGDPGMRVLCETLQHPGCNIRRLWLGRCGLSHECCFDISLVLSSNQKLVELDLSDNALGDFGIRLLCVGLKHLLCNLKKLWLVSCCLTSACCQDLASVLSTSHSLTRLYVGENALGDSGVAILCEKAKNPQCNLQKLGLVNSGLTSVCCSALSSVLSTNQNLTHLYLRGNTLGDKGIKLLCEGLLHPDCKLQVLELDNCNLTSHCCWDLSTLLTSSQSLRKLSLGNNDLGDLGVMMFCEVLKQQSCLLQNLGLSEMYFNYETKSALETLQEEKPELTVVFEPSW

SMILES | AC50 [1] [nM] | AC50 [2] [nM]
CC(C)c1nn(CC(=O)Nc2ccc3nncn3c2)c(=O)cc1N1CCCC1Cc1ccccn1 (stereo not given) | > 20000 | 1280
CC(C)c1nn(CC(=O)Nc2ccc3nncn3c2)c(=O)cc1N1C2CCC1CC2 | > 10000 | 1020
CC(C)c1nn(CC(=O)Nc2ccc3nncn3c2)c(=O)cc1Nc1ccccc1 | > 10000 | > 15000
CC(C)c1nn(CC(=O)Nc2ccc3nncn3c2)c(=O)cc1NCC1CC1 | > 10000 | 1530
CC(C)c1nn(CC(=O)Nc2ccc3nncn3c2)c(=O)cc1N1CCCCC1 | > 20000 | 1230
CC(C)c1nn(CC(=O)Nc2ccc3nncn3c2)c(=O)cc1N1CC2CC2C1 (stereo not given) | > 10000 | 90

The remaining lines, values ahead:

AC50 [1] [nM] | AC50 [2] [nM] | SMILES
> 20000 | 500 | CC(C)c1nn(CC(=O)Nc2ccc3nncn3c2)c(=O)cc1N1CC[C@@H]2C[C@@H]2C1
> 10000 | 530 | CC(C)c1nn(CC(=O)Nc2ccc3nncn3c2)c(=O)cc1N1CC[C@@H](F)C1
> 20000 | 420 | CC(C)c1nn(CC(=O)Nc2ccc3nncn3c2)c(=O)cc1N1CC[C@H](C)C1
> 10000 | 330 | CC(C)c1nn(CC(=O)Nc2ccc3nncn3c2)c(=O)cc1N1CCCC1
